Measurements taken from patent US7785828B1 (priority 2003, dated 2010).
Read-outs that look alike come from different tables or passages of the source.

Experiments:
Fusarium graminearum [1] = format: cell-based
Mycosphaerella fijiensis = format: cell-based; conditions: Measurement taken at 144 hours after inoculation; fold improvement compared to DmAMP1
Septoria tritici = format: cell-based; conditions: Measurement taken at 144 hours after inoculation; fold improvement compared to DmAMP1
Fusarium graminearum [2] = format: cell-based; conditions: Measurement taken at 72 hours after inoculation; fold improvement compared to DmAMP1
Fusarium graminearum [3] = test system: Fusarium graminearum; design: species or system wheat; conditions: in vivo
[4] = Table 2C (mixed diversity library), improvement compared to reference defensin protein DmAMP
[5] = Table 2B (Dm-AMP1 based libraries), improvement compared to reference defensin protein (Rs-AFP2 for Table 2B [sic])

DGVKLCERASQTWTGHCGNTKHCDKQCRNWEGAKHGACHKRNGKWKCFCYFNC (Defensin like) [L7-179]
Activity (1): antifungal activity of the NP against Fusarium graminearium (Fusarium graminearum [1]; [4]): +++ (+++ indicates a >10-fold improvement) | Antifungal activity, Mycosphaerella fijiensis (improvement compared to DmAMP1) (Mycosphaerella fijiensis): + (+ indicating 1- to 5-fold improvement compared to DmAMP1) | Antifungal activity, Septoria tritici (improvement compared to DmAMP1) (Septoria tritici): + (+ indicating 1- to 5-fold improvement compared to DmAMP1) | Antifungal activity, Fusarium graminearum (improvement compared to DmAMP1) (Fusarium graminearum [2]): + (+ indicating 1- to 5-fold improvement compared to DmAMP1)

DGVKLCERASQTWTGHCGNTKHCDNQCKNWEGAKHGACHKRSGKWKCFCYFNC (Defensin like) [L7-176]
Activity (1): antifungal activity of the NP against Fusarium graminearium (Fusarium graminearum [1]; [4]): +++ (+++ indicates a >10-fold improvement) | Antifungal activity, Mycosphaerella fijiensis (improvement compared to DmAMP1) (Mycosphaerella fijiensis): + (+ indicating 1- to 5-fold improvement compared to DmAMP1) | Antifungal activity, Septoria tritici (improvement compared to DmAMP1) (Septoria tritici): + (+ indicating 1- to 5-fold improvement compared to DmAMP1) | Antifungal activity, Fusarium graminearum (improvement compared to DmAMP1) (Fusarium graminearum [2]): + (+ indicating 1- to 5-fold improvement compared to DmAMP1)

DGVKLCERASQTWTGHCGNTKHCDNQCRNWEGAKHGACHKRNGKWKCFCYFNC (Defensin like) [L7-337]
Activity (1): antifungal activity of the NP against Fusarium graminearium (Fusarium graminearum [1]; [4]): ++ (++ indicates a >5- to 10-fold improvement) | Antifungal activity, Mycosphaerella fijiensis (improvement compared to DmAMP1) (Mycosphaerella fijiensis): ++ (++ indicating >5- to 10-fold improvement) | Antifungal activity, Septoria tritici (improvement compared to DmAMP1) (Septoria tritici): + (+ indicating 1- to 5-fold improvement compared to DmAMP1) | Antifungal activity, Fusarium graminearum (improvement compared to DmAMP1) (Fusarium graminearum [2]): +++ (+++ indicating >10-fold improvement)

DGVKLCERPSQTWSGHCGNTKHCDKQCRNWEGAKHGACHVRNGKWKCFCYFNC (Defensin like) [L7-87]
Activity (1): antifungal activity of the NP against Fusarium graminearium (Fusarium graminearum [1]; [4]): +++ (+++ indicates a >10-fold improvement) | Antifungal activity, Mycosphaerella fijiensis (improvement compared to DmAMP1) (Mycosphaerella fijiensis): + (+ indicating 1- to 5-fold improvement compared to DmAMP1) | Antifungal activity, Septoria tritici (improvement compared to DmAMP1) (Septoria tritici): ++ (++ indicating >5- to 10-fold improvement) | Antifungal activity, Fusarium graminearum (improvement compared to DmAMP1) (Fusarium graminearum [2]): +++ (+++ indicating >10-fold improvement)

DGVKLCERPSQTWTGNCGNTKHCDKQCKNWEKAKHGACHVRNGKWKCFCYFNC (Defensin like) [L7-457]
Activity (1): antifungal activity of the NP against Fusarium graminearium (Fusarium graminearum [1]; [4]): +++ (+++ indicates a >10-fold improvement) | Antifungal activity, Mycosphaerella fijiensis (improvement compared to DmAMP1) (Mycosphaerella fijiensis): + (+ indicating 1- to 5-fold improvement compared to DmAMP1) | Antifungal activity, Septoria tritici (improvement compared to DmAMP1) (Septoria tritici): + (+ indicating 1- to 5-fold improvement compared to DmAMP1) | Antifungal activity, Fusarium graminearum (improvement compared to DmAMP1) (Fusarium graminearum [2]): + (+ indicating 1- to 5-fold improvement compared to DmAMP1)

DGVKLCERPSQTWTGNCGNTKHCDKQCRNWEGAKHGACHVRNGKWKCFCYFNC (Defensin like) [L7-39]
Activity (1): antifungal activity of the NP against Fusarium graminearium (Fusarium graminearum [1]; [4]): ++ (++ indicates a >5- to 10-fold improvement) | Antifungal activity, Mycosphaerella fijiensis (improvement compared to DmAMP1) (Mycosphaerella fijiensis): + (+ indicating 1- to 5-fold improvement compared to DmAMP1) | Antifungal activity, Septoria tritici (improvement compared to DmAMP1) (Septoria tritici): + (+ indicating 1- to 5-fold improvement compared to DmAMP1) | Antifungal activity, Fusarium graminearum (improvement compared to DmAMP1) (Fusarium graminearum [2]): + (+ indicating 1- to 5-fold improvement compared to DmAMP1)

ELCEKASKTWSGNCGNTKHCDTQCKNWEGAKHGACHVRSGKHKCFCYFNC (Defensin like) [L3-135]
disease spread compared to NP or wildtype defensin expression level in the infected plant (Fusarium graminearum [3]): clear inverse correlation between expression level and disease spread

NLCERASKTWTGNCGNTKHCDNQCKNWEGAKHGACHVRNGKWKCFCYFNC [L6-21] (Defensin like)
Activity (1): antifungal activity of the NP against Fusarium graminearium (Fusarium graminearum [1]; [5]): +++ (+++ indicates a >10-fold improvement) | Antifungal activity, Mycosphaerella fijiensis (improvement compared to DmAMP1) (Mycosphaerella fijiensis): + (+ indicating 1- to 5-fold improvement compared to DmAMP1) | Antifungal activity, Septoria tritici (improvement compared to DmAMP1) (Septoria tritici): +++ (+++ indicating >10-fold improvement) | Antifungal activity, Fusarium graminearum (improvement compared to DmAMP1) (Fusarium graminearum [2]): +++ (+++ indicating >10-fold improvement)

NLCERASKTWTGNCGNTKHCDNQCKNWEGAKHGACHVRNGKWKCFCYFNC [L6-41] (Defensin like)
Activity (1): antifungal activity of the NP against Fusarium graminearium (Fusarium graminearum [1]; [5]): +++ (+++ indicates a >10-fold improvement) | Antifungal activity, Mycosphaerella fijiensis (improvement compared to DmAMP1) (Mycosphaerella fijiensis): + (+ indicating 1- to 5-fold improvement compared to DmAMP1) | Antifungal activity, Septoria tritici (improvement compared to DmAMP1) (Septoria tritici): + (+ indicating 1- to 5-fold improvement compared to DmAMP1) | Antifungal activity, Fusarium graminearum (improvement compared to DmAMP1) (Fusarium graminearum [2]): + (+ indicating 1- to 5-fold improvement compared to DmAMP1)

NLCERASKTWTGNCGNTKHCDNQCKSWEGAKHGACHVRNGKHKCFCYFNC (Defensin like) [L9-33]
Activity (1): antifungal activity of the NP against Fusarium graminearium (Fusarium graminearum [1]; [5]): ++ (++ indicates a >5- to 10-fold improvement) | Antifungal activity, Mycosphaerella fijiensis (improvement compared to DmAMP1) (Mycosphaerella fijiensis): ++ (++ indicating >5- to 10-fold improvement) | Antifungal activity, Septoria tritici (improvement compared to DmAMP1) (Septoria tritici): +++ (+++ indicating >10-fold improvement) | Antifungal activity, Fusarium graminearum (improvement compared to DmAMP1) (Fusarium graminearum [2]): +++ (+++ indicating >10-fold improvement)

NLCERASKTWTGNCGNTKHCDNQCRNWEGAKHGACHKRSGKWKCFCYFNC (Defensin like) [L9-15]
Activity (1): antifungal activity of the NP against Fusarium graminearium (Fusarium graminearum [1]; [5]): +++ (+++ indicates a >10-fold improvement) | Antifungal activity, Mycosphaerella fijiensis (improvement compared to DmAMP1) (Mycosphaerella fijiensis): + (+ indicating 1- to 5-fold improvement compared to DmAMP1) | Antifungal activity, Septoria tritici (improvement compared to DmAMP1) (Septoria tritici): ++ (++ indicating >5- to 10-fold improvement) | Antifungal activity, Fusarium graminearum (improvement compared to DmAMP1) (Fusarium graminearum [2]): ++ (++ indicating >5- to 10-fold improvement)

NLCERASKTWTGNCGNTKHCDNQCRSWEGAKHGACHVRNGKHKCFCYFNC (Defensin like) [L6-75]
Activity (1): antifungal activity of the NP against Fusarium graminearium (Fusarium graminearum [1]; [5]): ++ (++ indicates a >5- to 10-fold improvement) | Antifungal activity, Mycosphaerella fijiensis (improvement compared to DmAMP1) (Mycosphaerella fijiensis): + (+ indicating 1- to 5-fold improvement compared to DmAMP1) | Antifungal activity, Septoria tritici (improvement compared to DmAMP1) (Septoria tritici): +++ (+++ indicating >10-fold improvement) | Antifungal activity, Fusarium graminearum (improvement compared to DmAMP1) (Fusarium graminearum [2]): +++ (+++ indicating >10-fold improvement)

NLCERASKTWTGNCGNTKHCDTQCKNWEGAKHGACHKRNGKWKCFCYFNC (Defensin like) [L3-42]
Activity (1): antifungal activity of the NP against Fusarium graminearium (Fusarium graminearum [1]; [5]): +++ (+++ indicates a >10-fold improvement) | Antifungal activity, Mycosphaerella fijiensis (improvement compared to DmAMP1) (Mycosphaerella fijiensis): + (+ indicating 1- to 5-fold improvement compared to DmAMP1) | Antifungal activity, Septoria tritici (improvement compared to DmAMP1) (Septoria tritici): ++ (++ indicating >5- to 10-fold improvement) | Antifungal activity, Fusarium graminearum (improvement compared to DmAMP1) (Fusarium graminearum [2]): +++ (+++ indicating >10-fold improvement)

NLCERASKTWTGNCGNTKHCDTQCKNWEGAKHGACHVRSGKHKCFCYFNC (Defensin like) [L6-58]
Activity (1): antifungal activity of the NP against Fusarium graminearium (Fusarium graminearum [1]; [5]): +++ (+++ indicates a >10-fold improvement) | Antifungal activity, Mycosphaerella fijiensis (improvement compared to DmAMP1) (Mycosphaerella fijiensis): + (+ indicating 1- to 5-fold improvement compared to DmAMP1) | Antifungal activity, Septoria tritici (improvement compared to DmAMP1) (Septoria tritici): + (+ indicating 1- to 5-fold improvement compared to DmAMP1) | Antifungal activity, Fusarium graminearum (improvement compared to DmAMP1) (Fusarium graminearum [2]): +++ (+++ indicating >10-fold improvement)

NLCERASKTWTGNCGNTKHCDTQCKSWEGAKHGACHVRNGKHKCECYFNC (NLCERASKTWTGNCGNTKHCDTQCKSWEGAKHGACHVRNGKHKCFCYFNC; Defensin like) [L6-84]
Activity (1): antifungal activity of the NP against Fusarium graminearium (Fusarium graminearum [1]; [5]): +++ (+++ indicates a >10-fold improvement) | Antifungal activity, Mycosphaerella fijiensis (improvement compared to DmAMP1) (Mycosphaerella fijiensis): +++ (+++ indicating >10-fold improvement) | Antifungal activity, Septoria tritici (improvement compared to DmAMP1) (Septoria tritici): + (+ indicating 1- to 5-fold improvement compared to DmAMP1) | Antifungal activity, Fusarium graminearum (improvement compared to DmAMP1) (Fusarium graminearum [2]): +++ (+++ indicating >10-fold improvement)

NLCERASKTWTGNCGNTKHCDTQCKSWEGAKHGACHVRNGKHKCFCYFNC (Defensin like) [L6-71]
Activity (1): antifungal activity of the NP against Fusarium graminearium (Fusarium graminearum [1]; [5]): +++ (+++ indicates a >10-fold improvement) | Antifungal activity, Mycosphaerella fijiensis (improvement compared to DmAMP1) (Mycosphaerella fijiensis): + (+ indicating 1- to 5-fold improvement compared to DmAMP1) | Antifungal activity, Septoria tritici (improvement compared to DmAMP1) (Septoria tritici): + (+ indicating 1- to 5-fold improvement compared to DmAMP1) | Antifungal activity, Fusarium graminearum (improvement compared to DmAMP1) (Fusarium graminearum [2]): +++ (+++ indicating >10-fold improvement)

NLCERASKTWTGNCGNTKHCDTQCKSWESAKHGACHVRSGKHKCFCYFNC (Defensin like) [L3-64]
Activity (1): antifungal activity of the NP against Fusarium graminearium (Fusarium graminearum [1]; [5]): + (+ indicates a 1- to 5-fold improvement in activity compared to a reference defensin protein) | Antifungal activity, Mycosphaerella fijiensis (improvement compared to DmAMP1) (Mycosphaerella fijiensis): + (+ indicating 1- to 5-fold improvement compared to DmAMP1) | Antifungal activity, Septoria tritici (improvement compared to DmAMP1) (Septoria tritici): ++ (++ indicating >5- to 10-fold improvement) | Antifungal activity, Fusarium graminearum (improvement compared to DmAMP1) (Fusarium graminearum [2]): +++ (+++ indicating >10-fold improvement)

QKLCQKPSRTWSGVCGNNNACKNQCIRLEKARHGSCNYVFPAHKCICYFPC (Defensin like) [L2-12]
disease spread compared to NP or wildtype defensin expression level in the infected plant (Fusarium graminearum [3]): A protective effect was also seen

QKLCQRPSGTWSGVCMNNNACKNQCIRLEKAKHGSCNYVFPAHKCICYFPC (Defensin like) [L2-52]
disease spread compared to NP or wildtype defensin expression level in the infected plant (Fusarium graminearum [3]): No clear correlation
